Columns and labels:
HGPS fibroblast cultures = assay: Scoring of abnormally shaped nuclei in fibroblast cultures treated with farnesyltransferase inhibitor; format: cell-based, human; conditions: 20 μM FTI-277 daily, after 48 h treatment, HGPS fibroblasts PPDs 35-38; decreased from 31%
Description: Indirect immunofluorescence and Western blot: Primary cultures of dermal fibroblasts were processed for indirect immunofluorescence as described previously (Paradisi et al, 2005). Rabbit antibodies directed against A-type and B-type lamins were described previously (Chaudhary et al, 1993; Cance et al, 1992). Goat anti-lamin B1 M-20 and anti-prelamin A C-20 (Santa Cruz), monoclonal antibodies anti-emerin 4G5 (Novocastra), anti-nucleoporin Nup153 clone 414 (Covance), anti-lamin A Jo14 (Serotec), and anti-Ki-67 (BD Bioscience) were purchased. Secondary antibodies were affinity purified Alexa Fluor 488 goat or donkey IgG antibodies (Molecular Probes) and Cy3-conjugated IgG antibodies (Jackson ImmunoResearch laboratories). All samples were counterstained with DAPI (Sigma-Aldrich). […]
Quantification: The percentages of ki-67 positive cells, of misshapen or blebbing nuclei, and senescence β-gal positive cells were determined by direct count of 300 cells per coverslip in triplicate, and from three independent experiments. […]
To determine the role of farnesylation in HGPS nuclear abnormalities, control and HGPS fibroblast cultures (PPDs 35-38) were treated daily with 20 μM farnesyltransferase inhibitor FTI-277 (Adjei et al, 2000). […] Progerin was also detected in nuclear foci similarly to wild-type prelamin A (FIG. 6B).

[1] = tested on: progerin (LMNA G608G) in HGPS fibroblasts; assay: Immunofluorescence localization of progerin after FTI-277 treatment; format: cell-based, human
Description: Indirect immunofluorescence and Western blot: Primary cultures of dermal fibroblasts were processed for indirect immunofluorescence as described previously (Paradisi et al, 2005). Rabbit antibodies directed against A-type and B-type lamins were described previously (Chaudhary et al, 1993; Cance et al, 1992). Goat anti-lamin B1 M-20 and anti-prelamin A C-20 (Santa Cruz), monoclonal antibodies anti-emerin 4G5 (Novocastra), anti-nucleoporin Nup153 clone 414 (Covance), anti-lamin A Jo14 (Serotec), and anti-Ki-67 (BD Bioscience) were purchased. Secondary antibodies were affinity purified Alexa Fluor 488 goat or donkey IgG antibodies (Molecular Probes) and Cy3-conjugated IgG antibodies (Jackson ImmunoResearch laboratories). All samples were counterstained with DAPI (Sigma-Aldrich). When cells were treated daily for 3 days with farnesyltransferase inhibitor FTI-277 (Calbiochem), the culture medium was supplemented with 20 μM FTI-277 or DMSO prior to immunofluorescence analysis as described previously (Adjei et al, 2000). Images were processed using Adobe Photoshop. For Western blot analysis, total cellular protein extracts were isolated from dermal fibroblast cultures at different population doublings (25 to 55) and processed as described previously (Paradisi et al, 2005).
To determine the role of farnesylation in HGPS nuclear abnormalities, control and HGPS fibroblast cultures (PPDs 35-38) were treated daily with 20 μM farnesyltransferase inhibitor FTI-277 (Adjei et al, 2000). After 48 h treatment, the percentage of HGPS nuclei with abnormal shapes decreased from 31% to 8% (FIG. 6A). The intranuclear repartition of prelamin A and the localization of LMNA G608G differed greatly between treated and un-treated cells; prelamin A was not detectable in control or HGPS cells (FIG. 6B). […] Progerin was also detected in nuclear foci similarly to wild-type prelamin A (FIG. 6B).

percentage of HGPS nuclei with abnormal shapes (HGPS fibroblast cultures): 8%
SMILES: COC(=O)[C@H](CCSC)NC(=O)c1ccc(NC[C@@H](N)CS)cc1-c1ccccc1 [FTI-277]
progerin localization (anti-LMNA G608G staining) ([1]; 20 μM FTI-277, 76 h after treatment): progerin was totally depleted from the NE in most nuclei
progerin localization (anti-LMNA G608G staining) ([1]; 20 μM FTI-277, after 24 h treatment): progerin was still incorporated into the nuclear lamina
progerin localization (anti-LMNA G608G staining) ([1]; 20 μM FTI-277, after 48 h treatment): progerin was progressively depleted from the NE and lamina

Reference: patent publication US20080292617A1, “ANTIBODY AGAINST A PEPTIDE DERIVED FROM HUMAN MUTANT LAMIN A PROTEIN AND USES THEREOF” (THE TRUSTEES OF COLUMBIA UNIVERSITY IN THE CITY OF NEW YORK, priority 2005, published 2008)
